Patent US10947252B2, “Inhibitors of KEAP1-Nrf2 protein-protein interaction” (Janssen Pharmaceutica NV, priority 2018, dated 2021)

What was measured:
[1] = biological target: Kelch domain of human KEAP1 (321-624 aa) (Homo sapiens (Human), UniProt Q14145); assay: KEAP1 KELCH ThermoFluor binding assay; conditions: KEAP Kelch […], 1,8-ANS, pH 7.0, average of results obtained, read-out: Tf Kd;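 also: Ligand-induced melting temperature shift of E. coli-expressed KEAP1 Kelch protein, Kd estimated from concentration-response curves of ΔTm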
Sequence of Kelch domain of human KEAP1 (321-624 aa) (Q14145 321-624): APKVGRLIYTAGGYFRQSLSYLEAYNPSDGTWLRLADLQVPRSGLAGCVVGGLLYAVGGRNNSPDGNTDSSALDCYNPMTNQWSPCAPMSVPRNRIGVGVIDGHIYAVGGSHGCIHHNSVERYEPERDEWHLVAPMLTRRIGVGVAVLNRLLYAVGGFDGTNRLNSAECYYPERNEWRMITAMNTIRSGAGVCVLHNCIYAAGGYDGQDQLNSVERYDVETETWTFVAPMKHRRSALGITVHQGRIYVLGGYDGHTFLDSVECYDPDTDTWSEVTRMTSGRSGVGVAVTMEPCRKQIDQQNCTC

[2] = test system: Glo-Response ARE-luc2P HEK293 cell line; assay: ARE luciferase reporter cell-based assay; conditions: average of results obtained;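 also: luciferase signal tracks Nrf2 activation of the ARE once compounds disrupt KEAP1-Nrf2 binding, read with One-Glo reagent, DMSO serving as low control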

| Compound | Kd [1] | EC50 ([2]; 24 hours) | EC50 ([2]; Homo sapiens, HEK293, 24 h) |
| --- | --- | --- | --- |
| Cc1ccc([C@H](CC(=O)O)c2cc(OC(F)F)c3c(c2)nnn3C)cc1CN1C[C@H]2CCCN2c2ncccc2S1(=O)=O (relative stereo) [Example 247, (*S)-3-(7-(Difluoromethoxy)-1-methyl-1H-benzo[d][1,2,3]triazol-5-yl)-3-(3-(((R)-5,5-dioxido-7a,8,9,10-tetrahydropyrido[2,3-f]pyrrolo[2,1-d][1,2,5]thiadiazepin-6(7H)-yl)methyl)-4-methylphenyl)propanoic Acid] | < 1 nM | 225 nM |  |
| Cc1ccc([C@H](CC(=O)O)c2cc(OC3CC3)c3c(c2)nnn3C)cc1CN1C[C@H]2CCCN2c2ncccc2S1(=O)=O (single isomer, unassigned) [Example 5, (*S)-3-(7-Cyclopropoxy-1-methyl-1H-benzo[d][1,2,3]triazol-5-yl)-3-(3-(((R)-5,5-dioxido-7a,8,9,10-tetrahydropyrido[2,3-f]pyrrolo[2,1-d][1,2,5]thiadiazepin-6(7H)-yl)methyl)-4-methylphenyl)propanoic Acid] | 0.518 nM |  | 110 nM |
| Cc1ccc([C@H](CC(=O)O)c2ccn3c(C(F)(F)F)nnc3c2C)cc1CN1C[C@H]2CCCCN2c2ncc(C#N)cc2S1(=O)=O (single isomer, unassigned) [Example 9, (*S)-3-(3-(((*R)-3-Cyano-5,5-dioxido-7,7a,8,9,10,11-hexahydro-6H-dipyrido[2,1-d:2′,3′-f][1,2,5]thiadiazepin-6-yl)methyl)-4-methylphenyl)-3-(8-methyl-3-(trifluoromethyl)-[1,2,4]triazolo[4,3-a]pyridin-7-yl)propanoic Acid] | < 1 nM |  | 3.8 nM |
| Cc1ccc([C@H](CC(=O)O)c2ccn3c(C(F)(F)F)nnc3c2C)cc1CN1C[C@@H]2CCCCN2c2ncc(C#N)cc2S1(=O)=O (single isomer, unassigned) [Example 10, (*S)-3-(3-(((*S)-3-Cyano-5,5-dioxido-7,7a,8,9,10,11-hexahydro-6H-dipyrido[2,1-d:2′,3′-f][1,2,5]thiadiazepin-6-yl)methyl)-4-methylphenyl)-3-(8-methyl-3-(trifluoromethyl)-[1,2,4]triazolo[4,3-a]pyridin-7-yl)propanoic Acid] | < 1 nM |  | 5.2 nM |
| CCn1nnc2c(C)c([C@@H](c3ccc(C)c(CN4CC5(CCOCC5)Oc5ncccc5S4(=O)=O)c3)C(C)(C)C(=O)O)ccc21 (single isomer, unassigned) [Example 16, (*R)-3-(3-((1′,1′-Dioxido-2,3,5,6-tetrahydrospiro[pyran-4,4′-pyrido[2,3-b][1,4,5]oxathiazepin]-2′(3′H)-yl)methyl)-4-methylphenyl)-3-(1-ethyl-4-methyl-1H-benzo[d][1,2,3]triazol-5-yl)-2,2-dimethylpropanoic Acid] | 838 nM |  | 233 nM |
| Cc1cnc2c(c1)S(=O)(=O)N(Cc1cc([C@H](c3ccn4c(C(F)(F)F)nnc4c3C)C(C)(C)C(=O)O)ccc1C)CC1(CCOCC1)O2 (single isomer, unassigned) [Example 19, (*R)-2,2-Dimethyl-3-(4-methyl-3-((8′-methyl-1′,1′-dioxido-2,3,5,6-tetrahydrospiro[pyran-4,4′-pyrido[2,3-b][1,4,5]oxathiazepin]-2′(3′H)-yl)methyl)phenyl)-3-(8-methyl-3-(trifluoromethyl)-[1,2,4]triazolo[4,3-a]pyridin-7-yl)propanoic Acid] | 1280 nM |  | 789 nM |

More lines, main results first:

| Kd [1] | Compound | EC50 ([2]; 24 hours) | EC50 ([2]; Homo sapiens, HEK293, 24 h) |
| --- | --- | --- | --- |
| 0.162 nM | Cc1ccc([C@H](CC(=O)O)c2cc(OC(F)F)c3c(c2)nnn3C)cc1CN1C[C@H]2CCCCN2c2ncccc2S1(=O)=O (single isomer, unassigned) [Example 2, (*S)-3-(7-(Difluoromethoxy)-1-methyl-1H-benzo[d][1,2,3]triazol-5-yl)-3-(3-(((*R)-5,5-dioxido-7,7a,8,9,10,11-hexahydro-6H-dipyrido[2,1-d:2′,3′-f][1,2,5]thiadiazepin-6-yl)methyl)-4-methylphenyl)propanoic Acid] |  | 180 nM |
| 0.041 nM | Cc1ccc([C@@H](CC(=O)O)c2cc(OC(F)F)c3c(c2)nnn3C)cc1CN1C[C@H]2CCCCN2c2ncccc2S1(=O)=O (single isomer, unassigned) [Example 3, (*R)-3-(7-(Difluoromethoxy)-1-methyl-1H-benzo[d][1,2,3]triazol-5-yl)-3-(3-(((*R)-5,5-dioxido-7,7a,8,9,10,11-hexahydro-6H-dipyrido[2,1-d:2′,3′-f][1,2,5]thiadiazepin-6-yl)methyl)-4-methylphenyl)propanoic Acid] |  | 35 nM |
| 0.089 nM | Cc1ccc([C@@H](CC(=O)O)c2cc(OC3CC3)c3c(c2)nnn3C)cc1CN1C[C@H]2CCCN2c2ncccc2S1(=O)=O (single isomer, unassigned) [Example 6, (*R)-3-(7-Cyclopropoxy-1-methyl-1H-benzo[d][1,2,3]triazol-5-yl)-3-(3-(((R)-5,5-dioxido-7a,8,9,10-tetrahydropyrido[2,3-f]pyrrolo[2,1-d][1,2,5]thiadiazepin-6(7H)-yl)methyl)-4-methylphenyl)propanoic Acid] |  | 42 nM |
| 0.127 nM | Cc1ccc([C@H](CC(=O)O)c2ccn3c(C(F)(F)F)nnc3c2C)cc1CN1CC2(CC2)Oc2ncccc2S1(=O)=O (single isomer, unassigned) [Example 7, (*S)-3-(3-((1′,1′-Dioxidospiro[cyclopropane-1,4′-pyrido[2,3-b][1,4,5]oxathiazepin]-2′(3′H)-yl)methyl)-4-methylphenyl)-3-(8-methyl-3-(trifluoromethyl)-[1,2,4]triazolo[4,3-a]pyridin-7-yl)propanoic Acid] |  | 74 nM |
| 0.188 nM | Cc1ccc([C@@H](CC(=O)O)c2ccn3c(C(F)(F)F)nnc3c2C)cc1CN1CC2(CC2)Oc2ncccc2S1(=O)=O (single isomer, unassigned) [Example 8, (*R)-3-(3-((1′,1′-dioxidospiro[cyclopropane-1,4′-pyrido[2,3-b][1,4,5]oxathiazepin]-2′(3′H)-yl)methyl)-4-methylphenyl)-3-(8-methyl-3-(trifluoromethyl)-[1,2,4]triazolo[4,3-a]pyridin-7-yl)propanoic Acid] |  | 660 nM |
| 0.079 nM | Cc1ccc([C@@H](CC(=O)O)c2ccc3c(nnn3CC3CC3)c2C)cc1CN1C[C@]2(C)CCCN2c2ncccc2S1(=O)=O (single isomer, unassigned) [Example 13, (*R)-3-(1-(Cyclopropylmethyl)-4-methyl-1H-benzo[d][1,2,3]triazol-5-yl)-3-(4-methyl-3-(((*S)-7a-methyl-5,5-dioxido-7a,8,9,10-tetrahydropyrido[2,3-f]pyrrolo[2,1-d][1,2,5]thiadiazepin-6(7H)-yl)methyl)phenyl)propanoic Acid] |  | 37.8 nM |
| 0.273 nM | CCn1nnc2c(C)c([C@@H](CC(=O)O)c3ccc(C)c(CN4C[C@H]5CCCN5c5ncccc5S4(=O)=O)c3)ccc21 (single isomer, unassigned) [Example 21, (*S)-3-(3-(((R)-5,5-Dioxido-7a,8,9,10-tetrahydropyrido[2,3-f]pyrrolo[2,1-d][1,2,5]thiadiazepin-6(7H)-yl)methyl)-4-methylphenyl)-3-(1-ethyl-4-methyl-1H-benzo[d][1,2,3]triazol-5-yl)propanoic Acid] |  | 28 nM |
